Measurements: ChEMBL document CHEMBL2375240, “The alpha-carbonic anhydrase from the thermophilic bacterium Sulfurihydrogenibium yellowstonense YO3AOP1 is highly susceptible to inhibition by sulfonamides” (Bioorg Med Chem, 2013)

Target: Carbonic anhydrase 1 (Homo sapiens, UniProt P00915)
Sequence (P00915 whole entry): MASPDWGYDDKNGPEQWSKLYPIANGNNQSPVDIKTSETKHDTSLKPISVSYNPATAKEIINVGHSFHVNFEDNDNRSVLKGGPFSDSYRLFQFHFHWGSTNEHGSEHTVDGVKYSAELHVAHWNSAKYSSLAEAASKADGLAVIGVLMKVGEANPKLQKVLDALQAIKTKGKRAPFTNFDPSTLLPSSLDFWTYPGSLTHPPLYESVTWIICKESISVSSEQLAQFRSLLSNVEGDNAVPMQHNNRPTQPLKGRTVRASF

Q: Which Ki does the source give for `NS(=O)(=O)c1nc2ccc(OCCO)cc2s1` here?
A: Its Ki is 23000 nM.

Q: `Cn1nc(S(N)(=O)=O)s/c1=N/S(=O)(=O)c1ccc(N)cc1` was tested. Which Ki did it give?
A: Its Ki is 185 nM.

Q: With `Nc1ccc2nc(S(N)(=O)=O)sc2c1` as the compound, how does the Ki read?
A: The Ki was 55 nM.
